Consider 21 compounds from patent publication US11319306B2, “Compositions and methods for treating neurodegenerative diseases” (Azevan Pharmaceuticals, Inc., priority 2014, dated 2022).

One may read the IC50 as the concentration at which inhibition is half-maximal. What is called Ki is a dissociation constant, usually derived from enzyme kinetics or from competition with a known ligand.

In assay [1] the target is T1, human V1a receptor (Homo sapiens, UniProt P37288).
T1 construct: host or cells: CHO cells (hV1a cell line)
Put plainly: Inhibition of phosphatidylinositol turnover (V1a). It counts as cell-based. The following applies: inhibition of vasopressin-mediated phosphatidylinositol turnover. An excerpt:
The physiological effects of vasopressin are mediated through specific G-protein coupled receptors. The vasopressin V1a receptor is coupled to the Gq/G11 family of G proteins and mediates phosphatidylinositol turnover. The agonist or antagonist character of the compounds of the invention may be determined by their ability to inhibit vasopressin-mediated turnover of phosphatidylinositol by the procedure described in the following paragraphs.
Cell culture and labeling of cells.
All assays were in triplicate except for basal and 10 nM AVP (both n=6). AVP ((arginine vasopressin), Peninsula Labs, Belmont, Calif., USA (#8103)) was dissolved in 0.1N acetic acid. Test agents were dissolved in DMSO and diluted in DMSO to 200 times the final test concentration. […] The order of incubations was randomized. Incubations were initiated by removing the prelabeling medium, washing the monolayer once with 1 mL of 0.9% NaCl, and transferring the contents of the assay tubes to corresponding wells. The plates were incubated for 1 hour at 37° C. Incubations were terminated by removing the incubation medium and adding 500 μL of ice cold 5% (w/v) trichloroacetic acid and allowing the wells to stand for 15 min.
BioRad Poly-Prep Econo-Columns were packed with 0.3 mL of AG 1 X-8 100-200 formate form resin. Resin was mixed 1:1 with water and 0.6 mL added to each column. Columns were then washed with 10 mL water. Scintillation vials (20 mL) were placed under each column. For each well, the contents were transferred to a minicolumn, after which the well was washed with 0.5 mL distilled water, which was also added to the minicolumn. The columns were then washed twice with 5 mL of 5 mM myo-inositol to elute free inositol. Aliquots (1 mL) were transferred to 20 mL scintillation vials and 10 mL of Beckman Ready Protein Plus added. After the myo-inositol wash was complete, empty scintillation vials were placed under the columns, and [^3H]inositol phosphates were eluted with three additions of 1 mL 0.5 M ammonium formate containing 0.1 N formic acid. Elution conditions were optimized to recover inositol mono-, bis-, and trisphosphates, without eluting the more metabolically inert tetrakis-, pentakis-, and hexakis-phosphates. To each sample was added 10 mL of a high salt capacity scintillation fluid such as Tru-Count High Salt Capacity or Packard Hionic-Fluor. Inositol lipids were measured by adding 1 mL of 2% sodium dodecyl sulfate (SDS) to each well, allowing the wells to stand for at least 30 min., and transferring the solution to 20 mL scintillation vials, to which 10 mL Beckman Ready Protein Plus scintillation fluid was then added. Samples were counted in a Beckman LS 3801 liquid scintillation counter for 10 min. Total inositol incorporation for each well was calculated as the sum of free inositol, inositol phosphates, and inositol lipids.
Concentration-response curves for AVP and concentration-inhibition curves for test agents versus 10 nM AVP were analyzed by nonlinear least-squares curve-fitting to a 4-parameter logistic function. Parameters for basal and maximal inositol phosphates, EC50 or IC50, and Hill coefficient were varied to achieve the best fit. The curve-fitting was weighted under the assumption that the standard deviation was proportional to dpm of radioactivity.

In assay [2] the target is T1, human V1a receptor. Put plainly: Human vasopressin V1a receptor binding assay (3H-AVP competition, hV1a CHO cells). The following applies: 3H-AVP competition, CHO cells expressing human V1a; for IC50: read-out: V1a Binding Affinity IC50; for Ki: read-out: V1a Ki. The method, then: Human vasopression V1a receptor binding assay. A cell line expressing the human V1a receptor in CHO cells (henceforth referred to as the hV1a cell line) was obtained from Dr. Michael Brownstein, NIMH, Bethesda, Md., USA. The hV1a cDNA sequence is described by Thibonnier et al., Journal of Biological Chemistry, 269, 3304-3310 (1994), and the expression method was the same as described by Morel et al. (1992). The hV1a cell line was grown in alpha-MEM with 10% fetal bovine serum and 250 ug/ml G418 (Gibco, Grand Island, N.Y., USA). For competitive binding assay, hV1a cells were plated into 6-well culture plate at 1:10 dilution from a confluency flask, and maintained in culture for at least two days. Culture medium was then removed, cells were washed with 2 ml binding buffer (25 mM Hepes, 0.25% BSA, 1×DMEM, PH=7.0). To each well, 990 μl binding buffer containing InM 3H-AVP was added, and followed by 10 μl series diluted Example compounds dissolved in DMSO. […] 100 nM cold AVP (Sigma) was used to assess non-specific binding. Cells were incubated for 45 minutes at 37° C., assay mixture was removed and each well was washed three times with PBS (pH=7.4). 1 ml 2% SDS was added per well and plates were let sit for 30 minutes. The whole content in a well was transferred to a scintillation vial. Each well was rinsed with 0.5 ml PBS which was then added to the corresponding vial. Scintillation fluid (Ecoscint, National Diagnostics, Atlanta, Ga.) was then added at 3 ml per vial. Samples were counted in a liquid scintillation counter (Beckman LS3801). IC50 values were calculated by Prism Curve fitting software.
All of the alkanedioic esters and amides exemplified in the foregoing examples dissolved in DMSO were tested in this assay. Binding curves were generated according to methods described by Thibonnier et al. (1994). [^3H]-AVP was added to the hV1a cell cultures followed by 10-fold dilutions of each test compound.

T1 sequence (P37288 whole entry): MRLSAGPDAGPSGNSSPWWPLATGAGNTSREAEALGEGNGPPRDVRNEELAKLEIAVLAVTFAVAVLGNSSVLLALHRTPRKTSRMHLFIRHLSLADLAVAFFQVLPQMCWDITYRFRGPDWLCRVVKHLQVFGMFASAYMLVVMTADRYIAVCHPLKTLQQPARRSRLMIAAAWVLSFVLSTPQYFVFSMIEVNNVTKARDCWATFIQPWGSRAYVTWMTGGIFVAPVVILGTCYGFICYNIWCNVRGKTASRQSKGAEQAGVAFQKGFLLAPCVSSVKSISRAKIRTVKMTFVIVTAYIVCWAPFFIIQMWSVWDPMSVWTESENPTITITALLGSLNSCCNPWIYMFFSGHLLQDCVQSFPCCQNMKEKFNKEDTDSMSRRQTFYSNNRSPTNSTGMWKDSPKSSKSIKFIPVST

As for `O=C(NCc1cccc(C(F)(F)F)c1)[C@H](CCC(=O)N1CCN(CCc2ccccc2)CC1)N1C(=O)[C@@H](N2C(=O)OC[C@@H]2c2ccccc2)[C@H]1C=Cc1ccccc1` (single isomer, unassigned) [Example 35], the “agonist or antagonist character” value on human V1a receptor [1] is reported as “vasopressin V1a antagonists”.

With `O=C(NCc1cccc(C(F)(F)F)c1)C(CCC(=O)N1CCC(N2CCCCC2)CC1)N1C(=O)C(N2C(=O)OCC2c2ccccc2)C1C=Cc1ccccc1` (single isomer, unassigned) [Example 88], at human V1a receptor [2], the IC50 was determined as 2.4 nM and the Ki was 1.45 nM. The “agonist or antagonist character” value at human V1a receptor [1] is listed as “vasopressin V1a antagonists”.

On to `O=C(NCc1cccc(C(F)(F)F)c1)C(CCC(=O)N1CCN(C2CCCCC2)CC1)N1C(=O)C(N2C(=O)OCC2c2ccccc2)C1C=Cc1ccccc1` (single isomer, unassigned) [Example 110], for which the “agonist or antagonist character” value at human V1a receptor [1] is “vasopressin V1a antagonists”.

For `O=C(NCc1cccc(C(F)(F)F)c1)C(CC(=O)N1CCC(N2CCCCC2)CC1)N1C(=O)C(N2C(=O)OCC2c2ccccc2)C1C=Cc1ccccc1` (centres unmarked) [Example 44], on human V1a receptor [2], the IC50 is 3.1 nM and the Ki was 1.89 nM. In addition, the “agonist or antagonist character” value on human V1a receptor [1] was “vasopressin V1a antagonists”.

As for `O=C(NCc1cccc(C(F)(F)F)c1)C(CC(=O)N1CCC(N2CCCCC2)CC1)N1C(=O)C(N2C(=O)OCC2c2ccccc2)C1C=Cc1ccccc1` (centres unmarked) [Example 133], on human V1a receptor [2], the IC50 stood at 2.43 nM and the Ki turned out to be 1.49 nM. The “agonist or antagonist character” value on human V1a receptor [1] is on record as “vasopressin V1a antagonists”.

Turning to `COc1cccc(/C=C/[C@@H]2[C@H](N3C(=O)OC[C@@H]3c3ccccc3)C(=O)N2[C@@H](CCC(=O)N2CCN(C3CCCCC3)CC2)C(=O)N[C@@H]2CCCc3ccccc32)c1` [Example 242], on human V1a receptor [2], the IC50 turned out to be 2.2 nM and the Ki was determined as 1.36 nM.

Regarding `O=C(N[C@@H]1CCCc2ccccc21)[C@H](CCC(=O)N1CCN(C2CCCCC2)CC1)N1C(=O)[C@@H](N2C(=O)OC[C@@H]2c2ccccc2)[C@H]1/C=C/c1cccc(Cl)c1` [Example 243], at human V1a receptor [2], the IC50 was 0.5 nM and the Ki was 0.3 nM.

For the compound `O=C(NC1(c2ccccc2)CCCC1)[C@H](CCC(=O)N1CCN(C2CCCCC2)CC1)N1C(=O)[C@@H](N2C(=O)OC[C@@H]2c2ccccc2)[C@H]1/C=C/c1cccc(Cl)c1` [Example 244], at human V1a receptor [2], the IC50 turned out to be 3.4 nM and the inhibition constant (Ki) turned out to be 2.1 nM.

Regarding `O=C(N[C@@H]1CCCc2ccccc21)[C@H](CCC(=O)N1CCN(C2CCCCC2)CC1)N1C(=O)[C@@H](N2C(=O)OC[C@@H]2c2ccccc2)[C@H]1/C=C/c1cccc(F)c1` [Example 245], at human V1a receptor [2], the IC50 is 1.1 nM and the Ki stood at 0.68 nM.

In the case of `O=C(N[C@@H]1CCCc2ccccc21)[C@H](CCC(=O)N1CCN(C2CCCCC2)CC1)N1C(=O)[C@@H](N2C(=O)OC[C@@H]2c2ccccc2)[C@H]1/C=C/c1cccc(C(F)(F)F)c1` [Example 246], at human V1a receptor [2], the IC50 stood at 2.1 nM and the Ki was determined as 1.3 nM.

As for `N#Cc1cccc(/C=C/[C@@H]2[C@H](N3C(=O)OC[C@@H]3c3ccccc3)C(=O)N2[C@@H](CCC(=O)N2CCN(C3CCCCC3)CC2)C(=O)N[C@@H]2CCCc3ccccc32)c1` [Example 248], at human V1a receptor [2], the IC50 is 5.3 nM and the Ki stood at 3.3 nM.

With `O=C(N[C@@H]1CCCc2ccccc21)[C@H](CCC(=O)N1CCN(C2CCCCC2)CC1)N1C(=O)[C@@H](N2C(=O)OC[C@@H]2c2ccccc2)[C@H]1/C=C/c1cccc([N+](=O)[O-])c1` [Example 249], on human V1a receptor [2], the IC50 came out at 1.7 nM and the Ki amounted to 1 nM.

In the case of `O=C(N[C@@H]1CCCc2ccccc21)[C@H](CCC(=O)N1CCN(C2CCCCC2)CC1)N1C(=O)[C@@H](N2C(=O)OC[C@@H]2c2ccccc2)[C@H]1/C=C/c1ccccc1Cl` [Example 250], at human V1a receptor [2], the IC50 amounted to 6.5 nM and the Ki came to 4 nM.

In the case of `O=C(N[C@@H]1CCCc2ccccc21)[C@H](CCC(=O)N1CCN(C2CCCCC2)CC1)N1C(=O)[C@@H](N2C(=O)OC[C@@H]2c2cccc(Cl)c2)[C@H]1/C=C/c1cccc(Cl)c1` [Example 251], on human V1a receptor [2], the IC50 was 0.5 nM and the Ki was determined as 0.3 nM.

With `O=C(N[C@@H]1CCCc2ccccc21)[C@H](CCC(=O)N1CCN(C2CCCCC2)CC1)N1C(=O)[C@@H](N2C(=O)OC[C@@H]2c2ccccc2)[C@H]1/C=C/c1cc(Cl)cc(Cl)c1` [Example 252], at human V1a receptor [2], the IC50 stood at 1.8 nM and the inhibition constant (Ki) turned out to be 1.1 nM.

On to `CC(NC(=O)C(CC(=O)N1CCC(N2CCCCC2)CC1)N1C(=O)C(N2C(=O)OCC2c2ccccc2)C1C=Cc1cccc(Cl)c1)c1ccccc1` (centres unmarked) [Example 559], for which, on human V1a receptor [2], the IC50 is 0.12 nM and the Ki worked out at 0.073 nM.

In the case of `CC(NC(=O)C(CC(=O)N1CCC(CN2CCCCC2)CC1)N1C(=O)C(N2C(=O)OCC2c2ccccc2)C1C=Cc1ccccc1)c1ccccc1` (centres unmarked) [Example 601], on human V1a receptor [2], the IC50 is 1 nM and the Ki was 0.62 nM.

Regarding `CC(NC(=O)C(CC(=O)N1CCC(N2CCCCC2)CC1)N1C(=O)C(N2C(=O)OCC2c2ccccc2)C1C=Cc1cccc(Br)c1)c1ccccc1` (centres unmarked) [Example 606], at human V1a receptor [2], the IC50 was determined as 0.53 nM and the Ki amounted to 0.32 nM.

Consider `CC(NC(=O)C(CC(=O)N1CCC([N+]2([O-])CCCCC2)CC1)N1C(=O)C(N2C(=O)OCC2c2ccccc2)C1C=Cc1ccccc1)c1ccccc1` (centres unmarked) [Example 672], for which, on human V1a receptor [2], the Ki came to 1.1 nM.

In the case of `O=C(NCc1ccccc1F)C(CC(=O)N1CCC(N2CCCCC2)CC1)N1C(=O)C(N2C(=O)OCC2c2ccccc2)C1C=Cc1ccccc1` (centres unmarked) [Example 677], at human V1a receptor [2], the Ki is 3 nM.

As to “(2S)-[(4-cyclohexylpiperazinyl)carbonylethyl]-2-[3(S)-(4(S)-phenyloxazolidin-2-on-3-yl)-4(R)-(2-phenyleth-1-yl)azetidin-2-on-1-yl]acetic acid N—[(R)-1,2,3,4-tetrahydronaphth-1-yl]amide [Example 236A]”, at human V1a receptor [2], the IC50 worked out at 9 nM and the Ki turned out to be 5.5 nM.
